In patent publication US10765114B2, “4-amino-6-(pyridyl and 2-substitutedphenyl)-picolinates and 6-amino-2-(pyridyl and 2-substitutedphenyl)-pyrimidine-4-carboxylates and their use as herbicides” (Dow AgroSciences LLC, priority 2013, dated 2020):

These compounds were tested on Key Broadleaf Weed and Crop Species (assay: Post-Emergent Test II (Table 5)). Details: Abutilon theophrasti, post-emergence, 336 h, ABUTH: velvetleaf (Abutilon theophrasti), application rate 70 (kg ai/ha; footnote: g ai/ha), read-out: Visual Growth Reduction (%) 14 Days After Application ABUTH.
Assay type: in vivo
Summary of the method: (§1)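 Plants grown in a greenhouse (~15 h photoperiod, 23-29° C day) to first or second true leaf stage were sprayed post-emergence at 187 L/ha with compound in acetone/DMSO-based aqueous spray containing crop oil concentrate and surfactant, applied at a high rate plus ½× to 1/16× serial rates. Injury was scored visually 14 days later, 0-100% versus untreated plants.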

Row | Compound | pest or weed control at 70 g/ha [%]
1 | Nc1c(F)c(-c2ccc(Cl)c(Cl)c2Cl)nc(C(=O)O)c1Cl [Compound 10] | 0 to 29

Same assay, conditions: Abutilon theophrasti, post-emergence, 336 h, ABUTH: velvetleaf (Abutilon theophrasti), application rate 140 (kg ai/ha; footnote: g ai/ha), read-out: Visual Growth Reduction (%) 14 Days After Application ABUTH

Row | Compound | pest or weed control at 140 g/ha [%]
2 | Nc1c(F)c(-c2ccc(Cl)c(Cl)c2Cl)nc(C(=O)O)c1Cl [Compound 10] | 0 to 29

Same assay, conditions: Amaranthus retroflexus, post-emergence, 336 h, AMARE: redroot pigweed (Amaranthus retroflexus), application rate 70 (kg ai/ha; footnote: g ai/ha), read-out: Visual Growth Reduction (%) 14 Days After Application AMARE

Row | Compound | pest or weed control at 70 g/ha [%]
3 | Nc1c(F)c(-c2ccc(Cl)c(Cl)c2Cl)nc(C(=O)O)c1Cl [Compound 10] | 95 to 100

Same assay, conditions: Amaranthus retroflexus, post-emergence, 336 h, AMARE: redroot pigweed (Amaranthus retroflexus), application rate 140 (kg ai/ha; footnote: g ai/ha), read-out: Visual Growth Reduction (%) 14 Days After Application AMARE

Row | Compound | pest or weed control at 140 g/ha [%]
4 | Nc1c(F)c(-c2ccc(Cl)c(Cl)c2Cl)nc(C(=O)O)c1Cl [Compound 10] | 95 to 100

Same assay, conditions: Brassica napus, post-emergence, 336 h, BRSSS: oilseed rape, canola (Brassica napus), application rate 70 (kg ai/ha; footnote: g ai/ha), read-out: Visual Growth Reduction (%) 14 Days After Application BRSSS

Row | Compound | pest or weed control at 70 g/ha [%]
5 | Nc1c(F)c(-c2ccc(Cl)c(Cl)c2Cl)nc(C(=O)O)c1Cl [Compound 10] | 95 to 100

Same assay, conditions: Brassica napus, post-emergence, 336 h, BRSSS: oilseed rape, canola (Brassica napus), application rate 140 (kg ai/ha; footnote: g ai/ha), read-out: Visual Growth Reduction (%) 14 Days After Application BRSSS

Row | Compound | pest or weed control at 140 g/ha [%]
6 | Nc1c(F)c(-c2ccc(Cl)c(Cl)c2Cl)nc(C(=O)O)c1Cl [Compound 10] | 95 to 100

Same assay, conditions: Chenopodium album, post-emergence, 336 h, CHEAL: lambsquarters (Chenopodium album), application rate 70 (kg ai/ha; footnote: g ai/ha), read-out: Visual Growth Reduction (%) 14 Days After Application CHEAL

Row | Compound | pest or weed control at 70 g/ha [%]
7 | Nc1c(F)c(-c2ccc(Cl)c(Cl)c2Cl)nc(C(=O)O)c1Cl [Compound 10] | 75 to 84

Same assay, conditions: Chenopodium album, post-emergence, 336 h, CHEAL: lambsquarters (Chenopodium album), application rate 140 (kg ai/ha; footnote: g ai/ha), read-out: Visual Growth Reduction (%) 14 Days After Application CHEAL

Row | Compound | pest or weed control at 140 g/ha [%]
8 | Nc1c(F)c(-c2ccc(Cl)c(Cl)c2Cl)nc(C(=O)O)c1Cl [Compound 10] | 75 to 84

Same assay, conditions: Euphorbia heterophylla, post-emergence, 336 h, EPHHL: wild poinsettia (Euphorbia heterophylla), application rate 70 (kg ai/ha; footnote: g ai/ha), read-out: Visual Growth Reduction (%) 14 Days After Application EPHHL

Row | Compound | pest or weed control at 70 g/ha [%]
9 | Nc1c(F)c(-c2ccc(Cl)c(Cl)c2Cl)nc(C(=O)O)c1Cl [Compound 10] | 60 to 74

Same assay, conditions: Euphorbia heterophylla, post-emergence, 336 h, EPHHL: wild poinsettia (Euphorbia heterophylla), application rate 140 (kg ai/ha; footnote: g ai/ha), read-out: Visual Growth Reduction (%) 14 Days After Application EPHHL

Row | Compound | pest or weed control at 140 g/ha [%]
10 | Nc1c(F)c(-c2ccc(Cl)c(Cl)c2Cl)nc(C(=O)O)c1Cl [Compound 10] | 75 to 84

Same assay, conditions: Helianthus annuus, post-emergence, 336 h, HELAN: sunflower (Helianthus annuus), application rate 70 (kg ai/ha; footnote: g ai/ha), read-out: Visual Growth Reduction (%) 14 Days After Application HELAN

Row | Compound | pest or weed control at 70 g/ha [%]
11 | Nc1c(F)c(-c2ccc(Cl)c(Cl)c2Cl)nc(C(=O)O)c1Cl [Compound 10] | 0 to 29

Same assay, conditions: Helianthus annuus, post-emergence, 336 h, HELAN: sunflower (Helianthus annuus), application rate 140 (kg ai/ha; footnote: g ai/ha), read-out: Visual Growth Reduction (%) 14 Days After Application HELAN

Row | Compound | pest or weed control at 140 g/ha [%]
12 | Nc1c(F)c(-c2ccc(Cl)c(Cl)c2Cl)nc(C(=O)O)c1Cl [Compound 10] | 0 to 29

Same assay, conditions: Viola tricolor, post-emergence, 336 h, VIOTR: wild pansy (Viola tricolor), application rate 70 (kg ai/ha; footnote: g ai/ha), read-out: Visual Growth Reduction (%) 14 Days After Application VIOTR

Row | Compound | pest or weed control at 70 g/ha [%]
13 | Nc1c(F)c(-c2ccc(Cl)c(Cl)c2Cl)nc(C(=O)O)c1Cl [Compound 10] | 0 to 29

Same assay, conditions: Viola tricolor, post-emergence, 336 h, VIOTR: wild pansy (Viola tricolor), application rate 140 (kg ai/ha; footnote: g ai/ha), read-out: Visual Growth Reduction (%) 14 Days After Application VIOTR

Row | Compound | pest or weed control at 140 g/ha [%]
14 | Nc1c(F)c(-c2ccc(Cl)c(Cl)c2Cl)nc(C(=O)O)c1Cl [Compound 10] | 0 to 29

What follows are compounds tested on Key Grass and Sedge Weeds as well as Grass Crops (assay: Post-Emergent Test II (Table 6)). Details: post-emergence, 336 h, CYPSS, 70 g ai/ha, 14 days after application, read-out: Visual Growth Reduction (%) 14 Days After Application CYPSS.
Assay type: in vivo
Summary of the method: as §1

Row | Compound | pest or weed control at 70 g/ha [%]
15 | Nc1c(F)c(-c2ccc(Cl)c(Cl)c2Cl)nc(C(=O)O)c1Cl [Compound 10] | 0 to 29

Same assay, conditions: post-emergence, 336 h, CYPSS, 140 g ai/ha, 14 days after application, read-out: Visual Growth Reduction (%) 14 Days After Application CYPSS

Row | Compound | pest or weed control at 140 g/ha [%]
16 | Nc1c(F)c(-c2ccc(Cl)c(Cl)c2Cl)nc(C(=O)O)c1Cl [Compound 10] | 0 to 29

Same assay, conditions: post-emergence, 336 h, DIGSA: crabgrass (Digitaria sanguinalis), 70 g ai/ha, 14 days after application, read-out: Visual Growth Reduction (%) 14 Days After Application DIGSA

Row | Compound | pest or weed control at 70 g/ha [%]
17 | Nc1c(F)c(-c2ccc(Cl)c(Cl)c2Cl)nc(C(=O)O)c1Cl [Compound 10] | 0 to 29

Same assay, conditions: post-emergence, 336 h, DIGSA: crabgrass (Digitaria sanguinalis), 140 g ai/ha, 14 days after application, read-out: Visual Growth Reduction (%) 14 Days After Application DIGSA

Row | Compound | pest or weed control at 140 g/ha [%]
18 | Nc1c(F)c(-c2ccc(Cl)c(Cl)c2Cl)nc(C(=O)O)c1Cl [Compound 10] | 45 to 59

Same assay, conditions: post-emergence, 336 h, ECHSS, 70 g ai/ha, 14 days after application, read-out: Visual Growth Reduction (%) 14 Days After Application ECHSS

Row | Compound | pest or weed control at 70 g/ha [%]
19 | Nc1c(F)c(-c2ccc(Cl)c(Cl)c2Cl)nc(C(=O)O)c1Cl [Compound 10] | 0 to 29

Same assay, conditions: post-emergence, 336 h, ECHSS, 140 g ai/ha, 14 days after application, read-out: Visual Growth Reduction (%) 14 Days After Application ECHSS

Row | Compound | pest or weed control at 140 g/ha [%]
20 | Nc1c(F)c(-c2ccc(Cl)c(Cl)c2Cl)nc(C(=O)O)c1Cl [Compound 10] | 0 to 29

Same assay, conditions: post-emergence, 336 h, ORYSS (crop), 70 g ai/ha, 14 days after application, read-out: Visual Growth Reduction (%) 14 Days After Application ORYSS

Row | Compound | pest or weed control at 70 g/ha [%]
21 | Nc1c(F)c(-c2ccc(Cl)c(Cl)c2Cl)nc(C(=O)O)c1Cl [Compound 10] | 0 to 29

Same assay, conditions: post-emergence, 336 h, ORYSS (crop), 140 g ai/ha, 14 days after application, read-out: Visual Growth Reduction (%) 14 Days After Application ORYSS

Row | Compound | pest or weed control at 140 g/ha [%]
22 | Nc1c(F)c(-c2ccc(Cl)c(Cl)c2Cl)nc(C(=O)O)c1Cl [Compound 10] | 0 to 29

Same assay, conditions: post-emergence, 336 h, SETFA: giant foxtail (Setaria faberi), 70 g ai/ha, 14 days after application, read-out: Visual Growth Reduction (%) 14 Days After Application SETFA

Row | Compound | pest or weed control at 70 g/ha [%]
23 | Nc1c(F)c(-c2ccc(Cl)c(Cl)c2Cl)nc(C(=O)O)c1Cl [Compound 10] | 0 to 29

Same assay, conditions: post-emergence, 336 h, SETFA: giant foxtail (Setaria faberi), 140 g ai/ha, 14 days after application, read-out: Visual Growth Reduction (%) 14 Days After Application SETFA

Row | Compound | pest or weed control at 140 g/ha [%]
24 | Nc1c(F)c(-c2ccc(Cl)c(Cl)c2Cl)nc(C(=O)O)c1Cl [Compound 10] | 0 to 29

Same assay, conditions: post-emergence, 336 h, SORVU: grain sorghum (Sorghum vulgare), 70 g ai/ha, 14 days after application, read-out: Visual Growth Reduction (%) 14 Days After Application SORVU

Row | Compound | pest or weed control at 70 g/ha [%]
25 | Nc1c(F)c(-c2ccc(Cl)c(Cl)c2Cl)nc(C(=O)O)c1Cl [Compound 10] | 0 to 29

Same assay, conditions: post-emergence, 336 h, SORVU: grain sorghum (Sorghum vulgare), 140 g ai/ha, 14 days after application, read-out: Visual Growth Reduction (%) 14 Days After Application SORVU

Row | Compound | pest or weed control at 140 g/ha [%]
26 | Nc1c(F)c(-c2ccc(Cl)c(Cl)c2Cl)nc(C(=O)O)c1Cl [Compound 10] | 0 to 29

Same assay, conditions: post-emergence, 336 h, TRZSS (crop), 70 g ai/ha, 14 days after application, read-out: Visual Growth Reduction (%) 14 Days After Application TRZSS

Row | Compound | pest or weed control at 70 g/ha [%]
27 | Nc1c(F)c(-c2ccc(Cl)c(Cl)c2Cl)nc(C(=O)O)c1Cl [Compound 10] | 75 to 84

Same assay, conditions: post-emergence, 336 h, TRZSS (crop), 140 g ai/ha, 14 days after application, read-out: Visual Growth Reduction (%) 14 Days After Application TRZSS

Row | Compound | pest or weed control at 140 g/ha [%]
28 | Nc1c(F)c(-c2ccc(Cl)c(Cl)c2Cl)nc(C(=O)O)c1Cl [Compound 10] | 85 to 94

Same assay, conditions: post-emergence, 336 h, ZEAMX: maize, corn (Zea mays), 70 g ai/ha, 14 days after application, read-out: Visual Growth Reduction (%) 14 Days After Application ZEAMX

Row | Compound | pest or weed control at 70 g/ha [%]
29 | Nc1c(F)c(-c2ccc(Cl)c(Cl)c2Cl)nc(C(=O)O)c1Cl [Compound 10] | 60 to 74

Same assay, conditions: post-emergence, 336 h, ZEAMX: maize, corn (Zea mays), 140 g ai/ha, 14 days after application, read-out: Visual Growth Reduction (%) 14 Days After Application ZEAMX

Row | Compound | pest or weed control at 140 g/ha [%]
30 | Nc1c(F)c(-c2ccc(Cl)c(Cl)c2Cl)nc(C(=O)O)c1Cl [Compound 10] | 60 to 74
